These molecules were tested against T1, human chemokine receptor 2 isoform B (CCR2) (Homo sapiens, UniProt P41597) (assay: Calcium mobilization assay (FLIPR, MCP-1 stimulated CHOK1-CCR2B-A5 cells)). Conditions: Ca mobilisation assay, CCR2 antagonist activity, inhibition of MCP-1 induced calcium increase.
T1 sequence (P41597 1-360 isoform P41597-2): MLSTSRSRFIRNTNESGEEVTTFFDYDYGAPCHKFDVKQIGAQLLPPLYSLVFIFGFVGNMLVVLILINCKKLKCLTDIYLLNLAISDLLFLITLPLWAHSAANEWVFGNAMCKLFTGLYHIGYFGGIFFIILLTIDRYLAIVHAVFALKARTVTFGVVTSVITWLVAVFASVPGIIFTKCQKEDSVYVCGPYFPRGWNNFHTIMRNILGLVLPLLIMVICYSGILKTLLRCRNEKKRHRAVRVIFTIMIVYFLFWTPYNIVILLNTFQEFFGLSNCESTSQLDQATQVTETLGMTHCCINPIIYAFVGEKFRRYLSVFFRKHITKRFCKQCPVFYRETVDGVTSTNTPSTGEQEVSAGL
Assay type: cell-based
Procedure, shortened: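 Fluo-4-loaded CHOK1 cells stably expressing human CCR2B were preincubated with compound 20-30 min at 30 °C in DMEM/Hepes/probenecid/0.1% BSA buffer with 0.5% DMSO, then challenged with […] MCP-1. FLIPR calcium signal (max minus basal) gave IC50; agonism also monitored.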

IC50 | SMILES
2 nM | CC(=O)OC[C@H](CCN1CCC2(CC2)[C@H](O)C1)N1CCN(C(=O)Nc2ccc(Cl)c(Cl)c2)[C@@H](C)C1=O [Example 108, Acetic acid (S)-2-[(S)-4-(3,4-dichloro-phenylcarbamoyl)-3-methyl-2-oxo-piperazin-1-yl]-4-((S)-4-hydroxy-6-aza-spiro[2.5]oct-6-yl)-butyl ester]
10 nM | CC(=O)OC[C@H](CCN1CCC2(CC2)[C@H](O)C1)N1CCN(C(=O)Nc2cccc(Cl)c2)[C@@H](C)C1=O [Example 109, Acetic acid (S)-2-[(S)-4-(3-chloro-phenylcarbamoyl)-3-methyl-2-oxo-piperazin-1-yl]-4-((S)-4-hydroxy-6-aza-spiro[2.5]oct-6-yl)-butyl ester]
5 nM | COC(=O)OC[C@H](CCN1CCC2(CC2)[C@H](O)C1)N1CCN(C(=O)Nc2cccc(Cl)c2)[C@@H](C)C1=O [Example 110, Carbonic acid (S)-2-[(S)-4-(3-chloro-phenylcarbamoyl)-3-methyl-2-oxo-piperazin-1-yl]-4-((S)-4-hydroxy-6-aza-spiro[2.5]oct-6-yl)-butyl ester methyl ester]
17 nM | CCNC(=O)OC[C@H](CCN1CCC2(CC2)[C@H](O)C1)N1CCN(C(=O)Nc2cccc(Cl)c2)[C@@H](C)C1=O [Example 111, Ethyl-carbamic acid (S)-2-[(S)-4-(3-chloro-phenylcarbamoyl)-3-methyl-2-oxo-piperazin-1-yl]-4-((S)-4-hydroxy-6-aza-spiro[2.5]oct-6-yl)-butyl ester]
2 nM | COC(=O)OC[C@H](CCN1CCC2(CC2)[C@H](O)C1)N1CCN(C(=O)Nc2ccc(Cl)c(Cl)c2)[C@@H](C)C1=O [Example 112, Carbonic acid (S)-2-[(S)-4-(3,4-dichloro-phenylcarbamoyl)-3-methyl-2-oxo-piperazin-1-yl]-4-((S)-4-hydroxy-6-aza-spiro[2.5]oct-6-yl)-butyl ester methyl ester]
1 nM | CC(C)OC(=O)OC[C@H](CCN1CCC2(CC2)[C@H](O)C1)N1CCN(C(=O)Nc2ccc(Cl)c(Cl)c2)[C@@H](C)C1=O [Example 113, Carbonic acid (S)-2-[(S)-4-(3,4-dichloro-phenylcarbamoyl)-3-methyl-2-oxo-piperazin-1-yl]-4-((S)-4-hydroxy-6-aza-spiro[2.5]oct-6-yl)-butyl ester isopropyl ester]
6 nM | C[C@H]1C(=O)N([C@@H](CCN2CCC3(CC3)[C@H](O)C2)COC(=O)C(C)(C)C)CCN1C(=O)Nc1ccc(Cl)c(Cl)c1 [Example 114, 2,2-Dimethyl-propionic acid (S)-2-[(S)-4-(3,4-dichloro-phenylcarbamoyl)-3-methyl-2-oxo-piperazin-1-yl]-4-((S)-4-hydroxy-6-aza-spiro[2.5]oct-6-yl)-butyl ester]
10 nM | CC(C)C(=O)OC[C@H](CCN1CCC2(CC2)[C@H](O)C1)N1CCN(C(=O)Nc2ccc(Cl)c(Cl)c2)[C@@H](C)C1=O [Example 115, Isobutyric acid (S)-2-[(S)-4-(3,4-dichloro-phenylcarbamoyl)-3-methyl-2-oxo-piperazin-1-yl]-4-((S)-4-hydroxy-6-aza-spiro[2.5]oct-6-yl)-butyl ester]
5 nM | CCCCCC(=O)OC[C@H](CCN1CCC2(CC2)[C@H](O)C1)N1CCN(C(=O)Nc2ccc(Cl)c(Cl)c2)[C@@H](C)C1=O [Example 116, Hexanoic acid (S)-2-[(S)-4-(3,4-dichloro-phenylcarbamoyl)-3-methyl-2-oxo-piperazin-1-yl]-4-((S)-4-hydroxy-6-aza-spiro[2.5]oct-6-yl)-butyl ester]
3 nM | C[C@H]1C(=O)N([C@@H](CCN2CCC3(CC3)[C@H](O)C2)COC(=O)c2ccccc2)CCN1C(=O)Nc1ccc(Cl)c(Cl)c1 [Example 118, Benzoic acid (S)-2-[(S)-4-(3,4-dichloro-phenylcarbamoyl)-3-methyl-2-oxo-piperazin-1-yl]-4-((S)-4-hydroxy-6-aza-spiro[2.5]oct-6-yl)-butyl ester]
4 nM | COc1ccc(C(=O)OC[C@H](CCN2CCC3(CC3)[C@H](O)C2)N2CCN(C(=O)Nc3ccc(Cl)c(Cl)c3)[C@@H](C)C2=O)cc1 [Example 119, 4-Methoxy-benzoic acid (S)-2-[(S)-4-(3,4-dichloro-phenylcarbamoyl)-3-methyl-2-oxo-piperazin-1-yl]-4-((S)-4-hydroxy-6-aza-spiro[2.5]oct-6-yl)-butyl ester]
2 nM | C[C@H]1C(=O)N(C[C@@H](O)CN2CCC3(CC3)[C@H](O)C2)CCN1C(=O)Nc1ccc(Cl)c(Cl)c1 [Example 120, (S)-4-[(S)-2-Hydroxy-3-((S)-4-hydroxy-6-aza-spiro[2.5]oct-6-yl)-propyl]-2-methyl-3-oxo-piperazine-1-carboxylic acid (3,4-dichloro-phenyl)-amide]
6 nM | C[C@H]1C(=O)N(C[C@@H](O)CN2CCC3(CC3)[C@H](O)C2)CCN1C(=O)Nc1cccc(Cl)c1 [Example 121, (S)-4-[(S)-2-Hydroxy-3-((S)-4-hydroxy-6-aza-spiro[2.5]oct-6-yl)-propyl]-2-methyl-3-oxo-piperazine-1-carboxylic acid (3-chloro-phenyl)-amide]
23 nM | C[C@H]1C(=O)N(C[C@H](O)CN2CCC3(CC3)[C@H](O)C2)CCN1C(=O)Nc1ccc(Cl)c(Cl)c1 [Example 122, (S)-4-[(R)-2-Hydroxy-3-((S)-4-hydroxy-6-aza-spiro[2.5]oct-6-yl)-propyl]-2-methyl-3-oxo-piperazine-1-carboxylic acid (3,4-dichloro-phenyl)-amide]
248 nM | C[C@H]1C(=O)N(C[C@H](O)CN2CCC3(CC3)[C@H](O)C2)CCN1C(=O)Nc1cccc(Cl)c1 [Example 123, (S)-4-[(R)-2-Hydroxy-3-((S)-4-hydroxy-6-aza-spiro[2.5]oct-6-yl)-propyl]-2-methyl-3-oxo-piperazine-1-carboxylic acid (3-chloro-phenyl)-amide]
4 nM | C[C@H]1C(=O)N([C@@H](CCN2CCC3(CC3)[C@H](O)C2)C(=O)N(C)C)CCN1C(=O)Nc1ccc(Cl)c(Cl)c1 [Example 124, (S)-4-[(S)-1-Dimethylcarbamoyl-3-((S)-4-hydroxy-6-aza-spiro[2.5]oct-6-yl)-propyl]-2-methyl-3-oxo-piperazine-1-carboxylic acid (3,4-dichloro-phenyl)-amide]
16 nM | C[C@H]1C(=O)N([C@@H](CCN2CCC3(CC3)[C@H](O)C2)C(=O)N(C)C)CCN1C(=O)Nc1cccc(Cl)c1 [Example 125, (S)-4-[(S)-1-Dimethylcarbamoyl-3-((S)-4-hydroxy-6-aza-spiro[2.5]oct-6-yl)-propyl]-2-methyl-3-oxo-piperazine-1-carboxylic acid (3-chloro-phenyl)-amide]
